Patent US6316014A, “Microcide composition” (Centro de Bioactivos Quimicos (CBQ), priority 1996, dated 2001)
One block for each compound: values may come before it.

Key:
[1] = tested on: contamination of culture media; conditions: plants cultivated in vitro; cited from earlier work
Musa sp. = experiment: Development of "in vitro" plants of Musa sp., multiplication phase (scaleup); conditions: scaleups, standard method 1%
Experimental: An effective washout of the flasks and lids to be used in the production of in vitro plants was conducted using detergent, rinsing them with sufficient water and to then submerging the bottles in a sodium hypochlorite solution at 0.5% for a time interval never smaller than 3 minutes. Afterwards, the flasks are placed upside down and they should be used totally dry before 24 hours.
Once the culture medium is prepared and reaches a temperature of approximately 60-80° C. it is added the necessary weight of the formulation to obtain a concentration of 35 μg/ml and, then the volume required is poured into each of the flasks proceeding to the planting procedure after 24 hours.
Two scaleup studies were conducted on a Musa sp. culture in the multiplication phase. The death rate percentage during the three assays was 0.81% for the scaleups conducted adding the active principle and 1% for the standard method.
Two scaleup studies were conducted on a Musa sp. culture in the multiplication phase.

[2] = Water solubility and dissolution of active principle; assay type: physicochemical
[3] = Thermal stability of active principle; assay type: physicochemical
bacteria and fungi = conditions: EP-A 0 678 516; cited from earlier work

SMILES: CN[C@@H]1[C@H](O[C@H]2[C@H](O[C@H]3[C@H](O)[C@@H](O)[C@H](NC(=N)N)[C@@H](O)[C@@H]3NC(=N)N)O[C@@H](C)[C@]2(O)CO)O[C@@H](CO)[C@H](O)[C@H]1O [Dihydrostreptomycin]
Prevention of contamination [1]: without satisfactory results

SMILES: CO/N=C(\C(=O)N[C@@H]1C(=O)N2C(C(=O)O)=C(COC(C)=O)CS[C@H]12)c1csc(N)n1 [Cefotaxim]
Prevention of contamination [1]: without satisfactory results

Dissolution rate in an aqueous medium ([2]; aqueous medium): reduced dissolution rate
Water solubility ([2]; water): close-to-null water solubility
Thermally stable up to [3]: up to 110 °C
SMILES: O=[N+]([O-])C(Br)=Cc1ccc(Br)o1 [1-(5-bromophur-2-yl)-2-bromo-2-nitroethene]
Death rate percentage (Musa sp.): 0.81%
Antibacterial and antifungal activities (bacteria and fungi): powerful agent with antibacterial and antifungal activities

SMILES: CO[C@@H]1[C@@H](OC(N)=O)[C@@H](O)[C@H](Oc2ccc3c(O)c(NC(=O)c4ccc(O)c(CC=C(C)C)c4)c(=O)oc3c2C)OC1(C)C [Novobiocin]
Prevention of contamination [1]: without satisfactory results
